Reference: patent US20040209799A1, “JAK/STAT pathway inhibitors and the uses thereof” (priority 2000, published 2004)

How the values were obtained:
Type in all cases: cell-based
[1] = system: collagenase 1 (MMP1) mRNA; test: northern blot, IL-1β-induced mRNA in human articular chondrocytes: collagenase 1; settings: 5 μM, 2 ng/ml rhIL-1β, 24 hours, free base or trifluoroacetic acid salt form
Method: (§1) Frozen human articular chondrocyte cell strain HC30-0198 (described in Example 1) was thawed, and cultured in monolayer in T150 tissue culture flasks (Corning Costar, Cambridge, Mass.) as described above to 1-5 days post-confluence. Test cultures were rinsed in PBS, and preincubated for 2 hours with 10 ml of serum-free DMEM containing 5 μM DBH (synthetic), in its free base or trifluoroacetic acid salt form. An additional 10 ml of serum-free DMEM containing 5 μM DBH, 4 ng/ml recombinant human interleukin-1β (rhIL-1β; final concentration of 2 ng/ml) (R&D Systems, Minneapolis, Minn.), and 2% antibiotic solution (final concentration of 1%), were then added for 24 hours.
(§2) Two control cultures were run in parallel: one without DBH (rhIL-1β alone), and another without DBH or rhIL-1β.
(§3) Total RNA was fixed to the membrane using a Stratalinker® 1800 UV Crosslinker (Stratagene, La Jolla, Calif.). […]
(§4) The blot was successively washed two times in 2×SSC/0.05% SDS (15 min/wash at room temperature), and two times in 0.1×SSC/0.1% SDS (30 minutes/wash at 65° C.). The blot was allowed to air dry, and the radioactive signal was visualized and quantified using a Fujifilm, BAS-1500 phosphorimager (Fuji, Stamford, Conn.). […]

[2] = system: interleukin-6 (IL-6) mRNA; test: northern blot, IL-1β-induced mRNA in human articular chondrocytes: IL-6; settings: 5 μM, 2 ng/ml rhIL-1β, 24 hours, free base or trifluoroacetic acid salt form
Method: as §1, §2, §3, §4

[3] = system: NF-κB (p65) mRNA; test: northern blot, IL-1β-induced mRNA in human articular chondrocytes: NF-κB; settings: 5 μM, 2 ng/ml rhIL-1β, 24 hours, free base or trifluoroacetic acid salt form
Method: as §1, §2, §3, §4

[4] = system: cyclooxygenase II (COX2) mRNA; test: northern blot, IL-1β-induced mRNA in human articular chondrocytes: COX2; settings: 5 μM, 2 ng/ml rhIL-1β, 24 hours, free base or trifluoroacetic acid salt form
Method: as §1, §2, §3, §4

[5] = system: tumor necrosis factor-α (TNF-α) mRNA; test: northern blot, IL-1β-induced mRNA in human articular chondrocytes: TNF-α; settings: 5 μM, 2 ng/ml rhIL-1β, 24 hours, free base or trifluoroacetic acid salt form
Method: as §1, §2, §3, §4

[6] = system: stromelysin-1 (MMP3) mRNA; test: northern blot, IL-1β-induced mRNA in human articular chondrocytes: stromelysin-1; settings: 5 μM, 2 ng/ml rhIL-1β, 24 hours, free base or trifluoroacetic acid salt form
Method: as §1, §2, §3, §4

[7] = system: IL-1α-induced aggrecanase activity in bovine chondrocytes; test: IL-1α-induced 35S-labeled proteoglycan release (aggrecanase activity) in bovine chondrocytes; settings: Bos taurus, Chondrocyte, 1 ng/ml rhIL-1α, primary bovine articular chondrocytes
Method: Primary bovine articular chondrocytes were isolated from the dissected articular cartilage of calf stifle joints using a thirty minute (37° C.) 1 mg/ml hyaluronidase (Boehringer Mannheim, Indianapolis, Ind.) treatment, followed by a thirty minute (37° C.) 2 mg/ml collagenase P (Boehringer Mannheim, Indianapolis, Ind.) and 2.5 mg/ml trypsin (GIBCO/BRL, Gaithersburg, Md.) treatment. Enzyme solutions were prepared in serum-free 1:1 Delbecco's modified essential medium/Ham's F-12 (DMEM/F12), and filter sterilized with a 0.22 μm Millex®-GV filter (Millipore S. A., Molsheim, France). A third, overnight digestion (0.5 mg/ml collagenase P at 37° C.) was performed in a Bellco stir flask.
Bovine chondrocytes were recovered by addition of an equal volume of DMEM/F12 supplemented with 10% fetal bovine serum (FBS) to neutralize enzymes, filtered through a 70 μm nylon Falcon® Cell Strainer (Beckton Dickinson, Franklin Lakes, N.J.), and centrifuged at 1000×g for 10 min at room temperature. […]
On day 28, the 0.5 ml media was removed and placed in a scintillation minivial. 4 ml of scintillation fluid was added and radioactivity in the media was quantified by scintillation counting. The cell layer was rinsed in PBS and harvested with 0.5 ml of 1× trypsin-EDTA, and quantified by scintillation counting as above. […]
Data were determined and expressed as follows: […]

Structure (SMILES)	inhibition of IL-1β-induced upregulation of collagenase 1 (MMP1) mRNA [1]	inhibition of IL-1β-induced upregulation of interleukin-6 (IL-6) mRNA [2]	inhibition of IL-1β-induced upregulation of NF-κB (p65) mRNA [3]	inhibition of IL-1β-induced upregulation of cyclooxygenase II (COX2) mRNA [4]	inhibition of IL-1β-induced upregulation of tumor necrosis factor-α (TNF-α) mRNA [5]	inhibition of IL-1β-induced upregulation of stromelysin (MMP3) mRNA [6]	inhibition at 5 µM [7] [%]
NC1=NC(=O)C(=C2CCNC(=O)c3[nH]ccc32)N1 [DBH, 4-(2-amino-4-oxo-2-imidazolin-5-ylidene)-4,5,6,7-tetrahydropyrrolo(2,3-c) azepine-8-one]	inhibit to various degrees	inhibit to various degrees	inhibit to various degrees	inhibit to various degrees	inhibit to various degrees	inhibit to various degrees	
NC1=NC(=O)C(=C2CCNC(=O)c3[nH]ccc32)N1 [DBH-2FB]							100
